Tests used:
[1] = target: T1, CNR1 (Homo sapiens, UniProt P21554); assay: SAFETYscan cAMP CNR1 Agonist; type: cell-based
Text: (§1) Supplement jm3c00155_si_002.xlsx, sheet "SAFETYScan" | column: RC50 (uM); Max Response

[2] = target: CHRM3 (Homo sapiens, UniProt P20309); assay: SAFETYscan Calcium Flux CHRM3 Agonist; type: cell-based
Text: as §1

[3] = target: HRH2 (Homo sapiens, UniProt P25021); assay: SAFETYscan cAMP HRH2 Agonist; type: cell-based
Text: as §1

[4] = target: NAV1.5 (Homo sapiens, UniProt Q14524); assay: SAFETYscan Ion Channel NAV1.5 Blocker; type: cell-based
Sequence of NAV1.5 (Q14524 whole entry): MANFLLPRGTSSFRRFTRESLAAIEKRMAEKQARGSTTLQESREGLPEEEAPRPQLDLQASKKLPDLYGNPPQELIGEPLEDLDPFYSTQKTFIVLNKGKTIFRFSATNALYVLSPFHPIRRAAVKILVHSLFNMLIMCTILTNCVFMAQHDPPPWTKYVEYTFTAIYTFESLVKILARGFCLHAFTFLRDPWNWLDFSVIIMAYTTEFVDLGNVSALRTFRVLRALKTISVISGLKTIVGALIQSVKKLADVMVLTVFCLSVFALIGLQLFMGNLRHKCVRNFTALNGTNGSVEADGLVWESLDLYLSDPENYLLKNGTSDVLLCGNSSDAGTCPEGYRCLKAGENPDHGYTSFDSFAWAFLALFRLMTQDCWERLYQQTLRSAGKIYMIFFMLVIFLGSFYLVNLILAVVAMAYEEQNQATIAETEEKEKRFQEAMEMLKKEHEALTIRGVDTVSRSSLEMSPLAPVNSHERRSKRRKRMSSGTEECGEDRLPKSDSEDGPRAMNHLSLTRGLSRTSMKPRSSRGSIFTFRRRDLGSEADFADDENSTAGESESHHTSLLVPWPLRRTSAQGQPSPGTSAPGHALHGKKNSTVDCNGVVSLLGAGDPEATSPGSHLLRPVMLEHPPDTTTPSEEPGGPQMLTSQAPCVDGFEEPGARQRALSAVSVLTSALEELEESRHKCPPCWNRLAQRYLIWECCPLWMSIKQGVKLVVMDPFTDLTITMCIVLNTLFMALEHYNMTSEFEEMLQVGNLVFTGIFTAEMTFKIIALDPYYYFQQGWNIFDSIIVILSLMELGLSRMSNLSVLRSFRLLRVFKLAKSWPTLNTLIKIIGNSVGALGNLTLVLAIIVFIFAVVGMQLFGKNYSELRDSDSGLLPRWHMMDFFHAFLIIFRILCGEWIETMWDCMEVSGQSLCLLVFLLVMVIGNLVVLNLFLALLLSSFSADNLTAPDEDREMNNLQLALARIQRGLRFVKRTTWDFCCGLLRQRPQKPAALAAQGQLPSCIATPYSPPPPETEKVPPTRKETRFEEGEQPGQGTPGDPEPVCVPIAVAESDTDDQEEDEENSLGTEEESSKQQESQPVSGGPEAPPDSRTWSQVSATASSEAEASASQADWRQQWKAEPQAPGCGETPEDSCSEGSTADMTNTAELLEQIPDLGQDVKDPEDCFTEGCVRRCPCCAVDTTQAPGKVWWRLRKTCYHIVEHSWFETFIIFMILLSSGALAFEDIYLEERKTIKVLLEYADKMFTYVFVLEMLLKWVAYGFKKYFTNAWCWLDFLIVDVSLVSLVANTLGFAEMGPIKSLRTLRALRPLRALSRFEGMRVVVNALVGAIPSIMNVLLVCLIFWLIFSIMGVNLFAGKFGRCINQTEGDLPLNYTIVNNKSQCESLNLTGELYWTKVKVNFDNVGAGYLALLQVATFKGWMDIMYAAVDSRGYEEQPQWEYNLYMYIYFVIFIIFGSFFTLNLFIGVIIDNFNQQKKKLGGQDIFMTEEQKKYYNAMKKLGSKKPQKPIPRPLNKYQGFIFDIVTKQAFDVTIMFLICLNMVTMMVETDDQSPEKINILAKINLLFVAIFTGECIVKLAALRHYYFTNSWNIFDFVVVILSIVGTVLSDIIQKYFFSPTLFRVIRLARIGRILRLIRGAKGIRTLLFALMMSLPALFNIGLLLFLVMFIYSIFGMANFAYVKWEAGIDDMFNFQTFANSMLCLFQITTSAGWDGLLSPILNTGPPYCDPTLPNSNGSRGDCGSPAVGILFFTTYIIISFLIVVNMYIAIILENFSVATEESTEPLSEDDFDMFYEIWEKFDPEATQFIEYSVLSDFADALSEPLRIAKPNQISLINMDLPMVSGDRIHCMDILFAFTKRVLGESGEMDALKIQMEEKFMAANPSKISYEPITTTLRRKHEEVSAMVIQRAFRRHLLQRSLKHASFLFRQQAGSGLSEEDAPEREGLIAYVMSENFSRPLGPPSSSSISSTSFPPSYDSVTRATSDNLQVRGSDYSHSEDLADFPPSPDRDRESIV
Text: as §1

[5] = target: T1, CNR1; assay: SAFETYscan cAMP CNR1 Antagonist; type: cell-based
Text: as §1

[6] = target: T2, HTR3A (Homo sapiens, UniProt P46098); assay: SAFETYscan Ion Channel HTR3A Opener; type: cell-based
T2 sequence (P46098 24-478): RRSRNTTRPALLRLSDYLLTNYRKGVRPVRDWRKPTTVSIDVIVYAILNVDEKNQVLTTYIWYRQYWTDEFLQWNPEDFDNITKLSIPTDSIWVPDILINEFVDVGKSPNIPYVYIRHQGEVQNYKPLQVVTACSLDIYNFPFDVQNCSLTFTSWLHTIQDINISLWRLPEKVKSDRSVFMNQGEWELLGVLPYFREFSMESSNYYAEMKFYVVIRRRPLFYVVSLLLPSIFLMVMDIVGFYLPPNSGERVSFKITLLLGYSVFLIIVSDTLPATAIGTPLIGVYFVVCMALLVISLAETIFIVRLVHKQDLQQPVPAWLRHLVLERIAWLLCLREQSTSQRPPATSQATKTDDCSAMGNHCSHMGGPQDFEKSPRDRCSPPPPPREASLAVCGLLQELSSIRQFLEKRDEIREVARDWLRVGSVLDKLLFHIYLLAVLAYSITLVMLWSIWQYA
Text: as §1

[7] = target: HTR1B (Homo sapiens, UniProt P28222); assay: SAFETYscan cAMP HTR1B Antagonist; type: cell-based
Sequence of HTR1B (P28222 whole entry): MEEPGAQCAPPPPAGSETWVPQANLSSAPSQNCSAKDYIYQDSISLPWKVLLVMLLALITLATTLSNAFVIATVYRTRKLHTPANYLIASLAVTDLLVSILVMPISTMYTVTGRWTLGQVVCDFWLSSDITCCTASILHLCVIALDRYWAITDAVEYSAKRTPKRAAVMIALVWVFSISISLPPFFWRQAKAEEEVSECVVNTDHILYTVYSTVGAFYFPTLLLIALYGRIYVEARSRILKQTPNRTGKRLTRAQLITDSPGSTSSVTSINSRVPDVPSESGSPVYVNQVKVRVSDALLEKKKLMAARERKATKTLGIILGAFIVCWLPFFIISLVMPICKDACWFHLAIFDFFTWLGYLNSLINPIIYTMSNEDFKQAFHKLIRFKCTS
Text: as §1

[8] = target: CNR2 (Homo sapiens, UniProt P34972); assay: SAFETYscan cAMP CNR2 Agonist; type: cell-based
Sequence of CNR2 (P34972 whole entry): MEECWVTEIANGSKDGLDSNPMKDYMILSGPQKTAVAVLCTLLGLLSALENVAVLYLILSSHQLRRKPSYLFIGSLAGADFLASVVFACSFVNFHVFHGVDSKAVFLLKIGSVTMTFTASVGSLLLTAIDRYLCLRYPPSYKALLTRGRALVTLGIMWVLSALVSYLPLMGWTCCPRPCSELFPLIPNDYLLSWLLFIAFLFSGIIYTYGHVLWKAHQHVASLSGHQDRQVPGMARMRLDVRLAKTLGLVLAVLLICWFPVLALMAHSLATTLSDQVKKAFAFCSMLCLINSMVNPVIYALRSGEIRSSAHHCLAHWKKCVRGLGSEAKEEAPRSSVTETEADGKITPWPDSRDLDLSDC
Text: Supplement jm3c00155_si_002.xlsx, sheet "SAFETYScan" | column: RC50 (uM); Hill; Max Response

[9] = target: PDE4D2 (Homo sapiens, UniProt Q08499); assay: SAFETYscan Enzymatic PDE4D2 Inhibitor; type: biochemical
Text: as §1

[10] = target: HRH1 (Homo sapiens, UniProt P35367); assay: SAFETYscan Calcium Flux HRH1 Agonist; type: cell-based
Sequence of HRH1 (P35367 whole entry): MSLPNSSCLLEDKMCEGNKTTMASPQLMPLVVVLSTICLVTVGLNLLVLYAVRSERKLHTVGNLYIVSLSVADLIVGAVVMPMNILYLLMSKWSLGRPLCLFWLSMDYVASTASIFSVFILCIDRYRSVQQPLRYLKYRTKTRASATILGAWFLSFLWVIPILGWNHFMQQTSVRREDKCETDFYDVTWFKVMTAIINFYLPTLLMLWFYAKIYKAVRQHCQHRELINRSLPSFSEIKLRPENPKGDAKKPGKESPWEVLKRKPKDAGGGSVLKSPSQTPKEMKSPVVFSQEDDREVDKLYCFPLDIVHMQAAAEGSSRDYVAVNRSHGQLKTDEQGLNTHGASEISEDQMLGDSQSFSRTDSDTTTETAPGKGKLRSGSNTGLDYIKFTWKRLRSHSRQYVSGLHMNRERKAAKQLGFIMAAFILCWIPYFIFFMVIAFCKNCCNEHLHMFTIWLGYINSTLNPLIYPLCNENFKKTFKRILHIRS
Text: as §1

[11] = target: T3, ADRA1A (Homo sapiens, UniProt P35348); assay: SAFETYscan Calcium Flux ADRA1A Agonist; type: cell-based
T3 sequence (P35348 1-466): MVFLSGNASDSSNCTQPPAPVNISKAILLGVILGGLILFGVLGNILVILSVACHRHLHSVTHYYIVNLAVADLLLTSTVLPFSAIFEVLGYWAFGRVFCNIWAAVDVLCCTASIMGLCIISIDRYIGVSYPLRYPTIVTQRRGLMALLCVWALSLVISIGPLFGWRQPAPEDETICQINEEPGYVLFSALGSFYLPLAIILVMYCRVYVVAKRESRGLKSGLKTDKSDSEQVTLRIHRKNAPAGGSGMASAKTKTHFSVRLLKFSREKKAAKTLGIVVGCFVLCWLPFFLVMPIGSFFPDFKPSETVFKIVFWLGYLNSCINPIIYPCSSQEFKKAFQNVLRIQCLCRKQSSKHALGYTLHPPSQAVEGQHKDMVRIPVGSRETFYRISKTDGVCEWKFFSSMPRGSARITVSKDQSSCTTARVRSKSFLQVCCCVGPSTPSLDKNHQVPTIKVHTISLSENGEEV
Text: as §1

[12] = target: OPRK1 (Homo sapiens, UniProt P41145); assay: SAFETYscan cAMP OPRK1 Agonist; type: cell-based
Sequence of OPRK1 (P41145 whole entry): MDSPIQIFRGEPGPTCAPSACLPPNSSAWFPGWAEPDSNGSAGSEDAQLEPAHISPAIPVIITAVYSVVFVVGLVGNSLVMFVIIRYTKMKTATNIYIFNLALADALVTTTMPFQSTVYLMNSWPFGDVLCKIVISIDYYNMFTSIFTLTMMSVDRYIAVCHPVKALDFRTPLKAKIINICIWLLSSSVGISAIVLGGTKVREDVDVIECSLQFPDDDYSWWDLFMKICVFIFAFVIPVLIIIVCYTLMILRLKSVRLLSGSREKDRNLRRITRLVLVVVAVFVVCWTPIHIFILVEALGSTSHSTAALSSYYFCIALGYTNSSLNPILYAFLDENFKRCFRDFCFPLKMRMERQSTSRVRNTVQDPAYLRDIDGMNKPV
Text: as §1

[13] = target: T4, ADRA2A (Homo sapiens, UniProt P08913); assay: SAFETYscan cAMP ADRA2A Agonist; type: cell-based
T4 sequence (P08913 1-465): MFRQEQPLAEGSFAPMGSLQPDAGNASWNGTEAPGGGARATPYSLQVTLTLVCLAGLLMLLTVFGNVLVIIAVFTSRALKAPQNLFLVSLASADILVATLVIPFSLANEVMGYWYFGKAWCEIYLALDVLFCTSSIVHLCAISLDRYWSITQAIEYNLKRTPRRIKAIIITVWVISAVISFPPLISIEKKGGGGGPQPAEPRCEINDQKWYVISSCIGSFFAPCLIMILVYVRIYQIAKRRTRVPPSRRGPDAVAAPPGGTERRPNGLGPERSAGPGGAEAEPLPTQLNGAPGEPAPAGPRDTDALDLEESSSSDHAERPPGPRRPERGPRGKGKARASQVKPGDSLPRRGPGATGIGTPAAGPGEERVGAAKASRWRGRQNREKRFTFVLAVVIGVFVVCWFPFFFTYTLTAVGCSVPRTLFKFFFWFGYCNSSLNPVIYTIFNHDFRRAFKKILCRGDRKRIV
Text: as §1

T1 sequence (P21554 whole entry): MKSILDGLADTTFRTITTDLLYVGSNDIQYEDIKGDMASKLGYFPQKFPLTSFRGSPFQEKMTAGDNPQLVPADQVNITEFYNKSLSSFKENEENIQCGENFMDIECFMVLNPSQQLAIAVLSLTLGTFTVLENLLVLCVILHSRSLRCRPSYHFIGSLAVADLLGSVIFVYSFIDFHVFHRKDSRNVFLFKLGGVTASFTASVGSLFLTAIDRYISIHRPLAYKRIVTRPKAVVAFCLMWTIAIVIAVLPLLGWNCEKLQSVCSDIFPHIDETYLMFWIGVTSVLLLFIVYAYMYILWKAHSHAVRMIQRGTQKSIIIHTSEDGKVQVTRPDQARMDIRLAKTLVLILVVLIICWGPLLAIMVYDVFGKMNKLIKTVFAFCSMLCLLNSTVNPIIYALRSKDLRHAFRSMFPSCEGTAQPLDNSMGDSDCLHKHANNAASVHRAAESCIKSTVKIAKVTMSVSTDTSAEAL
Sequence of CHRM3 (P20309 whole entry): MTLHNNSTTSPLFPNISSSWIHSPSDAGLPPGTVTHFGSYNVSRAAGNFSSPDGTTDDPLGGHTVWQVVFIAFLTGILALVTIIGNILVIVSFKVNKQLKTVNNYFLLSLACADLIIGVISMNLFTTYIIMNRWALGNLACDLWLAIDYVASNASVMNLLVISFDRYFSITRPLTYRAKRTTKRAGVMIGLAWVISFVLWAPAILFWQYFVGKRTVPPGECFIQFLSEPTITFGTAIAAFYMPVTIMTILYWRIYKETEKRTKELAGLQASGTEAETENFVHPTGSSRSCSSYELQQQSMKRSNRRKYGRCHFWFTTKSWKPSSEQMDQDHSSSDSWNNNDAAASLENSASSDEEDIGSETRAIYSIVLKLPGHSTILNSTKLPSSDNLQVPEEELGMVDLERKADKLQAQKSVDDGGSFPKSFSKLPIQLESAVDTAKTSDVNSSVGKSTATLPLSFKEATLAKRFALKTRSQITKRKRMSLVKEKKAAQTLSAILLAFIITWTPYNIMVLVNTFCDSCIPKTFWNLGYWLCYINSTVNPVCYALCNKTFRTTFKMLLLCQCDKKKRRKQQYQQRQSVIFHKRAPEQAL

Cn1c(=O)c2c(c3cc(Nc4ccnc(F)c4Cl)ccc31)N[C@@H](C1CC1)C(F)(F)CO2 [compound 17, (S)-10-((3-chloro-2-fluoropyridin-4-yl)amino)-2-cyclopropyl-3,3-difluoro-7-methyl-1,2,3,4-tetrahydro-[1,4]oxazepino[2,3-c]quinolin-6(7H)-one]
EC50 [1]: > 10 µM
Emax ([1]; CNR1, cAMP, Agonist, read-out: Max Response): 27.3%
EC50 [2]: > 10 µM
Emax ([2]; CHRM3, Calcium Flux, Agonist, read-out: Max Response): 0%
Emax ([3]; read-out: Max Response): 0%
EC50 ([3]; read-out: RC50 (EC50)): > 10 µM
IC50 [4]: > 10 µM
Emax ([4]; NAV1.5, Ion Channel, Blocker, read-out: Max Response): 2.06%
IC50 [5]: > 10 µM
Emax ([5]; CNR1, cAMP, Antagonist, read-out: Max Response): 0%
EC50 [6]: > 10 µM
Emax ([6]; HTR3A, Ion Channel, Opener, read-out: Max Response): 0%
IC50 [7]: > 10 µM
Emax ([7]; HTR1B, cAMP, Antagonist, read-out: Max Response): 0%
EC50 [8]: 1.4 µM
Hill ([8]; CNR2, cAMP, Agonist): 0.61
Emax ([8]; CNR2, cAMP, Agonist, read-out: Max Response): 77.7%
Emax ([9]; read-out: Max Response): 15%
IC50 ([9]; read-out: RC50 (IC50)): > 10 µM
Emax ([10]; read-out: Max Response): 0%
EC50 ([10]; read-out: RC50 (EC50)): > 10 µM
EC50 [11]: > 10 µM
Emax ([11]; ADRA1A, Calcium Flux, Agonist, read-out: Max Response): 0%
EC50 [12]: > 10 µM
Emax ([12]; OPRK1, cAMP, Agonist, read-out: Max Response): 21.1%
EC50 [13]: > 10 µM
Emax ([13]; ADRA2A, cAMP, Agonist, read-out: Max Response): 38.9%

From publication PMC10150366, “Discovery of an In Vivo Chemical Probe for BCL6 Inhibition by Optimization of Tricyclic Quinolinones” (Journal of Medicinal Chemistry, 2023)
